# Measured values taken from patent US20250092039A1, “GLUTARIMIDE-CONTAINING PAN-KRAS-MUTANT DEGRADER COMPOUNDS AND USES THEREOF” (Tiger Biotherapeutics Inc., priority 2022, published 2025).
# Legend:
# [1] = molecular target: KRAS-G12V/RAF1 (Homo sapiens (Human), UniProt P01116, G12V); assay: KRAS/RAF1 binding inhibition assay (AlphaScreen)
# Outline: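 Binding of GppNHp-loaded KRAS G12V to the RAF1 RBD was measured by AlphaScreen with test compound present in 2% DMSO (final), 60 min incubation at 4° C. Signals were converted to % inhibition versus DMSO, and IC50 was obtained by variable-slope nonlinear regression.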
# [2] = molecular target: KRAS G12V (Homo sapiens (Human), UniProt P01116, G12V); assay: KRAS G12V degradation in SW620 cells (Western blot, DC50); assay type: cell-based; details: 24 hours
# Chain of KRAS G12V (P01116-2 other isoform, or with tags, fused parts or gaps G12V): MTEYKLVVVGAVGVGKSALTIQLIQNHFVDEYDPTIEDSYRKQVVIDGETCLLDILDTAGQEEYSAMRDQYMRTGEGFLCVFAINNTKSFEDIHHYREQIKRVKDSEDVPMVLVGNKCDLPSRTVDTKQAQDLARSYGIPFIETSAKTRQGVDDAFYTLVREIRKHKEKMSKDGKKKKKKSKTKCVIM
# Outline: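 SW620 cells (homozygous KRAS G12V) were treated with compound for 24 hours at 37° C. KRAS in lysates was measured by Western blot with fluorescent secondary antibodies and expressed relative to DMSO vehicle (100%). DC50 came from a four-parameter variable-slope dose-response fit.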
# [3] = tested on: SW620 cells; assay: 3D cell growth inhibition of SW620 cells carrying endogenous KRAS G12V mutation (CellTiter-Glo 3D, GI50); assay type: cell-based; details: Homo sapiens, SW-620, 144 h; SW620 cells, 6 days; read-out: SW620 3D cell growth GI50
# Outline: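 SW620 cells (endogenous KRAS G12V) grown in 3D were dosed next day with compound from DMSO stocks at various concentrations, then incubated 6 days at 37° C.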
# Chain of KRAS-G12V/RAF1 (P01116-2 other isoform, or with tags, fused parts or gaps G12V): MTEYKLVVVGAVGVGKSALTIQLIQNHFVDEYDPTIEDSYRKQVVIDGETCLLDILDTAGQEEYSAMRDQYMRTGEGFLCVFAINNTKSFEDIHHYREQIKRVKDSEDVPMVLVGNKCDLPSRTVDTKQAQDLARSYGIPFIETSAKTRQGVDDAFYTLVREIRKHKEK
SMILES,IC50 [1] [nM],DC50 [2] [nM],GI50 [3] [nM]
"CCc1cccc2cc(O)cc(-c3ncc4c(N(C)[C@@H]5C[C@H]5F)nc(OCC5(CN6CCC7(CC6)CC(CN6CCN(c8ccc9c(c8)CN([C@H]8CCC(=O)NC8=O)C9=O)CC6)C7)CC5)nc4c3F)c12 [Compound 27, (S)-3-(5-(4-((7-((1-(((7-(8-ethyl-3-hydroxynaphthalen-1-yl)-8-fluoro-4-(((1R,2R)-2-fluorocyclopropyl)(methyl)amino)pyrido[4,3-d]pyrimidin-2-yl)oxy)methyl)cyclopropyl)methyl)-7-azaspiro[3.5]nonan-2-yl)methyl)piperazin-1-yl)-1-oxoisoindolin-2-yl)piperidine-2,6-dione]",> 200,1 to 10,10 to 100
"CCc1cccc2cc(O)cc(-c3ncc4c(N5CCC[C@@](C)(O)C5)nc(OCC5(CN6CC7(CCC(N8CCN(c9ccc%10c(c9)CN([C@H]9CCC(=O)NC9=O)C%10=O)CC8)CC7)C6)CC5)nc4c3F)c12 [Compound 141, (S)-3-(5-(4-(2-((1-(((7-(8-ethyl-3-hydroxynaphthalen-1-yl)-8-fluoro-4-((R)-3-hydroxy-3-methylpiperidin-1-yl)pyrido[4,3-d]pyrimidin-2-yl)oxy)methyl)cyclopropyl)methyl)-2-azaspiro[3.5]nonan-7-yl)piperazin-1-yl)-1-oxoisoindolin-2-yl)piperidine-2,6-dione]",< 20,> 100,> 100
"CCc1c(F)ccc2cc(O)cc(-c3ncc4c(N5CCC[C@@](C)(O)C5)nc(OCC5(CN6CCC7(CC6)CC(C6CCN(c8ccc9c(c8)CN(C8CCC(=O)NC8=O)C9=O)CC6)C7)CC5)nc4c3F)c12 (stereo partly drawn) [Compound 186, 3-(5-(4-(7-((1-(((7-(8-ethyl-7-fluoro-3-hydroxynaphthalen-1-yl)-8-fluoro-4-((R)-3-hydroxy-3-methylpiperidin-1-yl)pyrido[4,3-d]pyrimidin-2-yl)oxy)methyl)cyclopropyl)methyl)-7-azaspiro[3.5]nonan-2-yl)piperidin-1-yl)-1-oxoisoindolin-2-yl)piperidine-2,6-dione]",> 200,< 1,< 10
"CCc1cccc2cc(O)cc(-c3ncc4c(N5CCC[C@@](C)(O)C5)nc(OCC5(CN6CC7(CCN(c8ccc9c(c8)CN(C8CCC(=O)NC8=O)C9=O)CC7)C6)CC5)nc4c3F)c12 (stereo partly drawn) [Compound 16, 3-(5-(2-((1-(((7-(8-ethyl-3-hydroxynaphthalen-1-yl)-8-fluoro-4-((R)-3-hydroxy-3-methylpiperidin-1-yl)pyrido[4,3-d]pyrimidin-2-yl)oxy)methyl)cyclopropyl)methyl)-2,7-diazaspiro[3.5]nonan-7-yl)-1-oxoisoindolin-2-yl)piperidine-2,6-dione]",20 to 200,> 100,> 100
"CCc1c(F)ccc2cc(O)cc(-c3ncc4c(N5CCC[C@@](C)(O)C5)nc(OCC5(CN6CCC7(CC6)CC(CN6CCN(c8ccc9c(c8)CN([C@H]8CCC(=O)NC8=O)C9=O)CC6)C7)CC5)nc4c3F)c12 [Compound 2, (S)-3-(5-(4-((7-((1-(((7-(8-ethyl-7-fluoro-3-hydroxynaphthalen-1-yl)-8-fluoro-4-((R)-3-hydroxy-3-methylpiperidin-1-yl)pyrido[4,3-d]pyrimidin-2-yl)oxy)methyl)cyclopropyl)methyl)-7-azaspiro[3.5]nonan-2-yl)methyl)piperazin-1-yl)-1-oxoisoindolin-2-yl)piperidine-2,6-dione]",20 to 200,< 1,10 to 100
"CCc1cccc2cc(O)cc(-c3ncc4c(N5CCNC(=O)CC5)nc(OCC5(CN6CCC7(CC6)CC(CN6CCN(c8ccc9c(c8)CN([C@H]8CCC(=O)NC8=O)C9=O)CC6)C7)CC5)nc4c3F)c12 [Compound 128, (S)-3-(5-(4-((7-((1-(((7-(8-ethyl-3-hydroxynaphthalen-1-yl)-8-fluoro-4-(5-oxo-1,4-diazepan-1-yl)pyrido[4,3-d]pyrimidin-2-yl)oxy)methyl)cyclopropyl)methyl)-7-azaspiro[3.5]nonan-2-yl)methyl)piperazin-1-yl)-1-oxoisoindolin-2-yl)piperidine-2,6-dione]",> 200,> 100,> 100

# Further lines, results first:
IC50 [1] [nM],DC50 [2] [nM],GI50 [3] [nM],SMILES
> 200,> 100,> 100,"CCc1c(F)ccc2cc(O)cc(-c3ncc4c(N5CCC(O)CC5)nc(OCC5(CN6CCC(CN7CCN(c8ccc9c(c8)CN([C@H]8CCC(=O)NC8=O)C9=O)CC7)CC6)CC5)nc4c3F)c12 [Compound 115, (S)-3-(5-(4-((1-((1-(((7-(8-ethyl-7-fluoro-3-hydroxynaphthalen-1-yl)-8-fluoro-4-(4-hydroxypiperidin-1-yl)pyrido[4,3-d]pyrimidin-2-yl)oxy)methyl)cyclopropyl)methyl)piperidin-4-yl)methyl)piperazin-1-yl)-1-oxoisoindolin-2-yl)piperidine-2,6-dione]"
20 to 200,< 1,< 10,"CCc1c(F)ccc2cc(O)cc(-c3ncc4c(N5CCC[C@@](C)(O)C5)nc(OCC5(CN6CC(N7CCC8(CCN(c9ccc%10c(c9)CN(C9CCC(=O)NC9=O)C%10=O)CC8)CC7)C6)CC5)nc4c3F)c12 (stereo partly drawn) [Compound 153, 3-(5-(9-(1-((1-(((7-(8-ethyl-7-fluoro-3-hydroxynaphthalen-1-yl)-8-fluoro-4-((R)-3-hydroxy-3-methylpiperidin-1-yl)pyrido[4,3-d]pyrimidin-2-yl)oxy)methyl)cyclopropyl)methyl)azetidin-3-yl)-3,9-diazaspiro[5.5]undecan-3-yl)-1-oxoisoindolin-2-yl)piperidine-2,6-dione]"
20 to 200,< 1,< 10,"C[C@@]1(O)CCCN(c2nc(OCC3(CN4CCC5(CC4)CC(F)(CN4CCN(c6ccc7c(c6)CN([C@H]6CCC(=O)NC6=O)C7=O)CC4)C5)CC3)nc3c(F)c(-c4cc(O)cc5ccc(F)c(F)c45)ncc23)C1 [Compound 174, (S)-3-(5-(4-((7-((1-(((7-(7,8-difluoro-3-hydroxynaphthalen-1-yl)-8-fluoro-4-((R)-3-hydroxy-3-methylpiperidin-1-yl)pyrido[4,3-d]pyrimidin-2-yl)oxy)methyl)cyclopropyl)methyl)-2-fluoro-7-azaspiro[3.5]nonan-2-yl)methyl)piperazin-1-yl)-1-oxoisoindolin-2-yl)piperidine-2,6-dione]"
> 200,< 1,< 10,"CCc1cccc2cc(O)cc(-c3ncc4c(N5CCC[C@@](C)(O)C5)nc(OCC5(CN6CCC(OC7CC8(CCN(c9ccc%10c(c9)CN(C9CCC(=O)NC9=O)C%10=O)CC8)C7)CC6)CC5)nc4c3F)c12 (stereo partly drawn) [Compound 181, 3-(5-(2-((1-((1-(((7-(8-ethyl-3-hydroxynaphthalen-1-yl)-8-fluoro-4-((R)-3-hydroxy-3-methylpiperidin-1-yl)pyrido[4,3-d]pyrimidin-2-yl)oxy)methyl)cyclopropyl)methyl)piperidin-4-yl)oxy)-7-azaspiro[3.5]nonan-7-yl)-1-oxoisoindolin-2-yl)piperidine-2,6-dione]"
20 to 200,1 to 10,10 to 100,"C[C@@]1(O)CCCN(c2nc(OCC3(CN4CCC(CN5CCN(c6ccc7c(c6)CN([C@H]6CCC(=O)NC6=O)C7=O)CC5)CC4)CC3)nc3c(F)c(-c4cc(O)cc5cccc(Cl)c45)ncc23)C1 [Compound 123, (S)-3-(5-(4-((1-((1-(((7-(8-chloro-3-hydroxynaphthalen-1-yl)-8-fluoro-4-((R)-3-hydroxy-3-methylpiperidin-1-yl)pyrido[4,3-d]pyrimidin-2-yl)oxy)methyl)cyclopropyl)methyl)piperidin-4-yl)methyl)piperazin-1-yl)-1-oxoisoindolin-2-yl)piperidine-2,6-dione]"
< 20,< 1,< 10,"CCc1c(F)ccc2cc(O)cc(-c3ncc4c(N5CCC[C@@](C)(O)C5)nc(OCC5(CN6CCC(F)(CN7CCC(N8CCN(c9ccc%10c(c9)CN([C@H]9CCC(=O)NC9=O)C%10=O)CC8)CC7)CC6)CC5)nc4c3F)c12 [Compound 72, (S)-3-(5-(4-(1-((1-((1-(((7-(8-ethyl-7-fluoro-3-hydroxynaphthalen-1-yl)-8-fluoro-4-((R)-3-hydroxy-3-methylpiperidin-1-yl)pyrido[4,3-d]pyrimidin-2-yl)oxy)methyl)cyclopropyl)methyl)-4-fluoropiperidin-4-yl)methyl)piperidin-4-yl)piperazin-1-yl)-1-oxoisoindolin-2-yl)piperidine-2,6-dione]"
20 to 200,< 1,10 to 100,"C[C@@]1(O)CCCN(c2nc(OCC3(CN4CCC5(CC4)CC(CN4CCN(c6ccc7c(c6)CN([C@H]6CCC(=O)NC6=O)C7=O)CC4)C5)CC3)nc3c(F)c(-c4cc(O)cc5cccc(Cl)c45)ncc23)C1 [Compound 129, (S)-3-(5-(4-((7-((1-(((7-(8-chloro-3-hydroxynaphthalen-1-yl)-8-fluoro-4-((R)-3-hydroxy-3-methylpiperidin-1-yl)pyrido[4,3-d]pyrimidin-2-yl)oxy)methyl)cyclopropyl)methyl)-7-azaspiro[3.5]nonan-2-yl)methyl)piperazin-1-yl)-1-oxoisoindolin-2-yl)piperidine-2,6-dione]"
